Reference: patent US11738022B2, “Methods for inducing pupil dilation” (THE REGENTS OF THE UNIVERSITY OF COLORADO, A BODY CORPORATE, priority 2017, dated 2023)

Columns and labels:
pupil = assay: Pupil dilation measured with Neuroptics pupillometer after α-2 agonist pre-treatment and/or phenylephrine; format: in vivo, human
Procedure: Dilation medication used was Phenylephrine hydrochloride 10% (Akorn, Inc). Pupillometer used was a Neuroptics DP-2000 Binocular Pupillometer).
Dilation using phenylephrine hydrochloride 10% was conducted in both eyes of the test subject to use as a control against the other compounds being tested.
After this, dilation using phenylephrine hydrochloride 2.5% or phenylephrine hydrochloride 10% was conducted to investigate the effects of the compound on pupil dilation.
Apracionidine 0.5% was administered in the right eye of the test subject three (3) times a day for 4 days. After this, dilation using phenylephrine hydrochloride 10% was conducted to investigate the effects of the compound on pupil dilation.
After this, dilation using phenylephrine hydrochloride 10% was conducted to investigate the effects of the compound on pupil dilation.
A washout period of multiple months was undertaken in between each experiment.
Pupil measurements were obtained using a Neuroptics pupillometer. Parameters were as follows: Scotopic conditions for 1 second, followed by photopic conditions for 4 seconds (1258.925 lux), followed by scotopic conditions for 10 seconds. This allowed for investigation of scotopic pupil size, photopic pupil size, and scotopic pupil size recovery after the light stimulus concluded.
The pupils of the subject's pretreated right eye and untreated control left eye were then measured under both scotopic and photopic conditions for baseline measurements (FIG. 6A). Photopic conditions consisted of a 4 second window where a light was shining in both eyes simultaneously. […]
The experiment was repeated at a higher dosage wherein the subject was administered a second ophthalmic formulation containing 10% phenylephrine to both eyes. 30 minutes after instillation of 10% phenylephrine, the pupils of the subject were then measured under both scotopic and photopic conditions (FIG. 6C). […] Because the area of a circle is dependent on the radius squared (area of a circle=πr^2), the increase in area that is created from a increasing the pupil dilation size is not linear.
The results were then compared.

α receptors (α2:α1) = conditions: affinity ratio; cited from earlier work
[1] = after pre-treatment of right eye only, 3 times a day for 4 days, before phenylephrine
[2] = after pre-treatment of right eye only, 3 times a day for 4 days, before phenylephrine, left eye not treated
[3] = dilation pre and post treatment with α 2 agonist: treated eye vs control measurements of same eye
[4] = non-treated eye dilation compared to treated eye dilation
[5] = photopic conditions (1258.925 lux) after dilation with phenylephrine 10%
[6] = photopic conditions (1258.925 lux) after dilation with phenylephrine 10%, eye without pre-treatment
[7] = right eye pre-treated 3 times a day for 4 days, then phenylephrine 2.5% both eyes (FIG. 6B)
[8] = right eye pre-treated 3 times a day for 4 days, then phenylephrine 2.5% both eyes (FIG. 6B), left eye not pre-treated
[9] = right eye pre-treated 3 times a day for 4 days, then phenylephrine 10% both eyes
[10] = right eye pre-treated 3 times a day for 4 days, then phenylephrine 10% both eyes, left eye not pre-treated

In the case of `Brc1c(NC2=NCCN2)ccc2nccnc12` [Brimonidine, brimonidine], the “dilation speed of pretreated eye vs control eye on return to scotopic conditions” value (pupil; 30 minutes after 2.5% phenylephrine (FIG. 6B)) is reported as “more rapidly”, the “dilation speed of pretreated eye vs control eye upon removal of the light” value (pupil; 30 minutes after 10% phenylephrine (FIG. 6C)) is reported as “more rapidly” and the “average increase in dilation size in the pretreated eye compared to the control eye” value (pupil; 30 minutes after 10% phenylephrine both eyes (FIG. 6C)) is reported as 36%. For the same molecule, the “dilation speed of pretreated eye upon return to scotopic conditions” value (pupil; after 4 days pre-treatment, before phenylephrine (FIG. 6A)) was “much more slowly”, the “increase of surgical work area compared to the pre-treatment control dilation amount in the same eye” value (pupil; after dilation with phenylephrine hydrochloride 10%) was “approximately 103%” and the “CH LStim Ave” value (pupil; [1]) was 69%. The “CH RPupil Ave” value (pupil; [1]) was 67%, the “CH RStim Ave” value (pupil; [1]) was 69% and the “CH Right” value (pupil; [1]) was 67%. The “CLAT LStim Ave” value (pupil; [1]) was 0.17 s, the “CLAT RPupil Ave” value (pupil; [1]) was 0.18 s and the “CLAT RStim Ave” value (pupil; [1]) was 0.17 s. The “CLAT Right” value (pupil; [1]) was 0.18 s, the “DELTA LStim Ave” value (pupil; [1]) was 4.70 mm and the “DELTA RPupil Ave” value (pupil; [1]) was 4.21 mm. For the same molecule, the “DELTA RStim Ave” value (pupil; [1]) was 4.70 mm, the “DV LStim Ave” value (pupil; [1]) was 1.02 mm/s and the “DV RPupil Ave” value (pupil; [1]) was 1.00 mm/s. The “DV RStim Ave” value (pupil; [1]) was 1.02 mm/s, the “DV Right” value (pupil; [1]) was 1.00 mm/s and the “MCV LStim Ave” value (pupil; [1]) was 6.57 mm/s. For the same molecule, the “MCV RPupil Ave” value (pupil; [1]) was 6.76 mm/s, the “MCV RStim Ave” value (pupil; [1]) was 6.57 mm/s and the “Max LStim Ave” value (pupil; [1]) was 6.86 mm. The “Max RStim Ave” value (pupil; [1]) was 6.86 mm, the “Max Right” value (pupil; [1]) was 6.27 mm and the “Min LStim Ave” value (pupil; [1]) was 2.16 mm. For the same molecule, the “Min RPupil Ave” value (pupil; [1]) was 2.06 mm, the “Min RStim Ave” value (pupil; [1]) was 2.16 mm and the “Min Right” value (pupil; [1]) was 2.06 mm. The “CH LPupil Ave” value (pupil; [2]) was 70%, the “CH Left” value (pupil; [2]) was 70% and the “CLAT LPupil Ave” value (pupil; [2]) was 0.17 s. For the same molecule, the “CLAT Left” value (pupil; [2]) was 0.17 s, the “DELTA Left” value (pupil; [2]) was 5.21 mm and the “DV Left” value (pupil; [2]) was 1.05 mm/s. For the same molecule, the “MCV Left” value (pupil; [2]) was 6.38 mm/s, the “Max Left” value (pupil; [2]) was 7.46 mm and the “Min Left” value (pupil; [2]) was 2.25 mm. The “Pupil size change (%)” value (pupil; [3]) was “+42.62%”, the “Surgical work area change (%)” value (pupil; [3]) was “+103.4%” and the “Pupil size change (%)” value (pupil; [4]) was “+35.81%”. For the same molecule, the “Surgical work area (%)” value (pupil; [4]) was “+84.44%”, the “Pupil size, Treated eye” value (pupil; [5]) was 5.12 mm and the “Surgical Work area, Treated eye” value (pupil; [5]) was 20.58 mm^2. For the same molecule, the “Pupil size, Non-treated eye” value (pupil; [6]) was 3.77 mm, the “Surgical Work area, Non-treated eye” value (pupil; [6]) was 11.16 mm^2 and the “dilation of pretreated eye vs control eye” value (pupil; photopic conditions, 30 minutes after 2.5% phenylephrine (FIG. 6B)) was “more dilated”. For the same molecule, the “dilation of pretreated eye vs control eye” value (pupil; photopic conditions, 30 minutes after 10% phenylephrine (FIG. 6C)) was “much more dilated”, the “pupil area, pre-treated eye” value (pupil; photopic conditions, after 10% phenylephrine (FIG. 6C)) was 20.59 mm^2 and the “pupil area, control eye” value (pupil; photopic conditions, after 10% phenylephrine (FIG. 6C), eye without pre-treatment) was 11.16 mm^2. For the same molecule, the “increase in surgical workspace” value (pupil; pre-treated vs control eye, photopic conditions, after 10% phenylephrine) was about 85%, the “CH LStim Ave” value (pupil; [7]) was 64% and the “CH RPupil Ave” value (pupil; [7]) was 61%. For the same molecule, the “CH RStim Ave” value (pupil; [7]) was 64%, the “CH Right” value (pupil; [7]) was 61% and the “CLAT LStim Ave” value (pupil; [7]) was 0.19 s. The “CLAT RPupil Ave” value (pupil; [7]) was 0.19 s, the “CLAT RStim Ave” value (pupil; [7]) was 0.19 s and the “CLAT Right” value (pupil; [7]) was 0.19 s. For the same molecule, the “DELTA LStim Ave” value (pupil; [7]) was 4.98 mm, the “DELTA RPupil Ave” value (pupil; [7]) was 4.70 mm and the “DELTA RStim Ave” value (pupil; [7]) was 4.98 mm. For the same molecule, the “DV LStim Ave” value (pupil; [7]) was 1.36 mm/s, the “DV RPupil Ave” value (pupil; [7]) was 1.39 mm/s and the “DV RStim Ave” value (pupil; [7]) was 1.36 mm/s. For the same molecule, the “DV Right” value (pupil; [7]) was 1.39 mm/s, the “MCV LStim Ave” value (pupil; [7]) was 6.06 mm/s and the “MCV RPupil Ave” value (pupil; [7]) was 5.40 mm/s. For the same molecule, the “MCV RStim Ave” value (pupil; [7]) was 6.06 mm/s, the “Max LStim Ave” value (pupil; [7]) was 7.73 mm and the “Max RStim Ave” value (pupil; [7]) was 7.73 mm. The “Max Right” value (pupil; [7]) was 7.69 mm, the “Min LStim Ave” value (pupil; [7]) was 2.75 mm and the “Min RPupil Ave” value (pupil; [7]) was 2.99 mm. The “Min RStim Ave” value (pupil; [7]) was 2.75 mm, the “Min Right” value (pupil; [7]) was 2.99 mm and the “CH LPupil Ave” value (pupil; [8]) was 68%. For the same molecule, the “CH Left” value (pupil; [8]) was 68%, the “CLAT LPupil Ave” value (pupil; [8]) was 0.19 s and the “CLAT Left” value (pupil; [8]) was 0.19 s. For the same molecule, the “DELTA Left” value (pupil; [8]) was 5.26 mm, the “DV Left” value (pupil; [8]) was 1.33 mm/s and the “MCV Left” value (pupil; [8]) was 6.71 mm/s. The “Max Left” value (pupil; [8]) was 7.77 mm, the “Min Left” value (pupil; [8]) was 2.51 mm and the “CH LStim Ave” value (pupil; [9]) was 52%. For the same molecule, the “CH RPupil Ave” value (pupil; [9]) was 46%, the “CH RStim Ave” value (pupil; [9]) was 52% and the “CH Right” value (pupil; [9]) was 46%. For the same molecule, the “CLAT LStim Ave” value (pupil; [9]) was 0.22 s, the “CLAT RPupil Ave” value (pupil; [9]) was 0.20 s and the “CLAT RStim Ave” value (pupil; [9]) was 0.22 s. The “CLAT Right” value (pupil; [9]) was 0.20 s, the “DELTA LStim Ave” value (pupil; [9]) was 4.74 mm and the “DELTA RPupil Ave” value (pupil; [9]) was 4.28 mm. For the same molecule, the “DELTA RStim Ave” value (pupil; [9]) was 4.74 mm, the “DV LStim Ave” value (pupil; [9]) was 1.06 mm/s and the “DV RPupil Ave” value (pupil; [9]) was 1.09 mm/s. The “DV RStim Ave” value (pupil; [9]) was 1.06 mm/s, the “DV Right” value (pupil; [9]) was 1.09 mm/s and the “MCV LStim Ave” value (pupil; [9]) was 4.22 mm/s. The “MCV RPupil Ave” value (pupil; [9]) was 4.20 mm/s, the “MCV RStim Ave” value (pupil; [9]) was 4.22 mm/s and the “Max LStim Ave” value (pupil; [9]) was 9.18 mm. For the same molecule, the “Max RStim Ave” value (pupil; [9]) was 9.18 mm, the “Max Right” value (pupil; [9]) was 9.40 mm and the “Min LStim Ave” value (pupil; [9]) was 4.44 mm. For the same molecule, the “Min RPupil Ave” value (pupil; [9]) was 5.12 mm, the “Min RStim Ave” value (pupil; [9]) was 4.44 mm and the “Min Right” value (pupil; [9]) was 5.12 mm. For the same molecule, the “CH LPupil Ave” value (pupil; [10]) was 58%, the “CH Left” value (pupil; [10]) was 58% and the “CLAT LPupil Ave” value (pupil; [10]) was 0.24 s. For the same molecule, the “CLAT Left” value (pupil; [10]) was 0.24 s, the “DELTA Left” value (pupil; [10]) was 5.19 mm and the “DV Left” value (pupil; [10]) was 1.04 mm/s. For the same molecule, the “MCV Left” value (pupil; [10]) was 4.25 mm/s, the “Max Left” value (pupil; [10]) was 8.96 mm and the “Min Left” value (pupil; [10]) was 3.77 mm. For the same molecule, the “dilation of pretreated eye vs control eye” value (pupil; scotopic and photopic conditions, after 4 days pre-treatment, before phenylephrine (FIG. 6A)) was “less dilated”, the “dilation of pretreated eye vs control eye” value (pupil; scotopic conditions, 30 minutes after 2.5% phenylephrine (FIG. 6B)) was “equally dilated” and the “dilation of pretreated eye vs control eye” value (pupil; scotopic conditions, 30 minutes after 10% phenylephrine (FIG. 6C)) was “more dilated”. The “α2:α1 affinity” value (α receptors (α2:α1)) was 976.
